# From patent publication US20220056043A1, “NITROGEN-CONTAINING FUSED CYCLIC COMPOUND, PREPARATION METHOD THEREFOR AND USE THEREOF” (SICHUAN KELUN-BIOTECH BIOPHARMACEUTICAL CO., LTD., priority 2019, published 2022)
# Key:
# hERG potassium channel [1] = target: T1, hERG potassium channel (Homo sapiens, UniProt Q12809); assay: in vitro
# hERG potassium channel [2] = target: T1, hERG potassium channel; assay: cell-based
# hERG potassium channel [3] = target: T1, hERG potassium channel
# CYP1A2 = target: T2, CYP1A2 (Homo sapiens, UniProt P05177); assay: CYP enzyme inhibition test, P450-Glo CYP1A2 Screening System; assay type: in vitro ADME; settings: for inhibitory effect on CYP1A2: conclusion in words
# T2 construct: purchased
# T2 sequence (P05177 1-516): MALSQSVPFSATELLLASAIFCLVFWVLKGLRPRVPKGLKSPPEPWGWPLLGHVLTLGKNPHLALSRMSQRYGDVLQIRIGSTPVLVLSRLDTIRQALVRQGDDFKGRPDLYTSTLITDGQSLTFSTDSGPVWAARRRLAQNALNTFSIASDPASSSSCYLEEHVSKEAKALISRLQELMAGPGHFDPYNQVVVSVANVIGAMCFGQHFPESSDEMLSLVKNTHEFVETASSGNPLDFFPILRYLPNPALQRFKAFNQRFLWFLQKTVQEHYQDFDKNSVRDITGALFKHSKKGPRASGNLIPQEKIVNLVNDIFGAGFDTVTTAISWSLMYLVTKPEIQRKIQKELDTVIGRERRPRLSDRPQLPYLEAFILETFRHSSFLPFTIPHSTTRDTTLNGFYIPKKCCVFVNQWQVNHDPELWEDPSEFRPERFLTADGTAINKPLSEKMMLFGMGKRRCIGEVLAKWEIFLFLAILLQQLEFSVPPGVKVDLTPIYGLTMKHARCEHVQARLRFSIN
# Procedure: Experimental Example 6: CYP Enzyme Inhibition Test CYP450 is the most important enzyme system in drug metabolism. The enzymes involved in metabolism interact with drugs, and the most important ones are CYP1A2, CYP2D6 and CYP3A4. P450-Glo™ CYP1A2 Screening System, Vivid® CYP2D6 Cyan Screening Kit and Vivid® CYP3A4 Red Screening Kit were used in this test, and the inhibitory effects of the compounds on CYP1A2, CYP2D6 and CYP3A4 were determined according to the instructions of the kit.
# T1 sequence (Q12809 whole entry): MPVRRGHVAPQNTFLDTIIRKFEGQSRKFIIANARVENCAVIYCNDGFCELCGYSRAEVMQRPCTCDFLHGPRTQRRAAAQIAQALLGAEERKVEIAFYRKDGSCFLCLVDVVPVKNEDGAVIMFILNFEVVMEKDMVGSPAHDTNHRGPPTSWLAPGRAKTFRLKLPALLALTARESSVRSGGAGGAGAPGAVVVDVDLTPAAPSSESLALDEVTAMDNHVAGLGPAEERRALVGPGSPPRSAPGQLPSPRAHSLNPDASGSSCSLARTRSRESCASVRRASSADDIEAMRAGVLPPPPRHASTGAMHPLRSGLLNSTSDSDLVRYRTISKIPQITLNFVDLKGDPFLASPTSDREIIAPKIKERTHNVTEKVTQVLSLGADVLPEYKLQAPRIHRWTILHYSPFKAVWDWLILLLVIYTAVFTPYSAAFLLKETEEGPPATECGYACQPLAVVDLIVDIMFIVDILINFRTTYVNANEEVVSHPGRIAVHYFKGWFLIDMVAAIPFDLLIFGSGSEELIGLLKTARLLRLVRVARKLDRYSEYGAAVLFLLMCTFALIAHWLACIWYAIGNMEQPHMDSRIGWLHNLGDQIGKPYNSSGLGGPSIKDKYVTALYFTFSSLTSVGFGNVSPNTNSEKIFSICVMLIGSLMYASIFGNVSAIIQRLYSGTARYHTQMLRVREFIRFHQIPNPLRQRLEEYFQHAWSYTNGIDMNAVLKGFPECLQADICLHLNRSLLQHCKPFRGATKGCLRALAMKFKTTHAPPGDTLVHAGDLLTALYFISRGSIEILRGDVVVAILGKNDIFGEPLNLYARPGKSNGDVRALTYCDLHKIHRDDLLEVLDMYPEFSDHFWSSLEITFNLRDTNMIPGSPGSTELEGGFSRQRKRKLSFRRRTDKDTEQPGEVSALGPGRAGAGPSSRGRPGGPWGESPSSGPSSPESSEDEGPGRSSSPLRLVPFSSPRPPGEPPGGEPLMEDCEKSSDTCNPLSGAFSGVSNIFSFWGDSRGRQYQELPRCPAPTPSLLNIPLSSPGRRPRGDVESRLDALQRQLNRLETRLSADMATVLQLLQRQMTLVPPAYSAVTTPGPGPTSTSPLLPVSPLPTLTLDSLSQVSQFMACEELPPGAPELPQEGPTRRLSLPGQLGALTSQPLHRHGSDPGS
smiles,measurement,setting,value
"Nc1cc(N[C@@H]2CC[C@@H](O)C2)c2sc(-c3ccn[nH]3)cc2n1 [Compound 30, (1R,3R)-3-((5-amino-2-(1H-pyrazol-5-yl)thieno[3,2-b]pyridin-7-yl)amino)cyclopentanol]",inhibition at 10 μM,hERG potassium channel [1],1.91 ± 1.4%
same,IC50,hERG potassium channel [2],> 10 µM
same,inhibitory effect on hERG,hERG potassium channel [3],no apparent inhibitory effect
"C[C@@H]1CN(CCNc2cc(N)nc3cc(-c4ccn[nH]4)sc23)C[C@@H](C)O1 [Compound 124, N^7-(2-((2R,6R)-2,6-dimethylmorpholino)ethyl)-2-(1H-pyrazol-5-yl)thieno[3,2-b]pyridine-5,7-diamine]",IC50,CYP1A2,> 10 µM
same,inhibitory effect on CYP1A2,CYP1A2,no apparent inhibitory effects
"C[C@@H](CCO)Nc1cc(N)nc2cc(-c3ccn[nH]3)sc12 [Compound 125, (S)-3-((5-amino-2-(1H-pyrazol-5-yl)thieno[3,2-b]pyridin-7-yl)amino)butanol]",IC50,CYP1A2,> 10 µM
same,inhibitory effect on CYP1A2,CYP1A2,no apparent inhibitory effects
